In paper PMC11178805, “Ligand-based design of [^18F]OXD-2314 for PET imaging in non-Alzheimer’s disease tauopathies” (Nature Communications, 2024):
Values joined by “and” are separate entries in the source; they are usually repeats but may differ in a detail not shown here. Equal entries are not always repeated.

How the values were obtained:
MAO-A = target: T1, MAO-A (Homo sapiens, UniProt P21397); test: In vitro pharmacology screen (Eurofins): MAO-A; format: binding; settings: read-out: interaction with MAO-A (% inhibition)
T1 construct: purchased Eurofins, France (contract screening)
T1 sequence (P21397 1-527): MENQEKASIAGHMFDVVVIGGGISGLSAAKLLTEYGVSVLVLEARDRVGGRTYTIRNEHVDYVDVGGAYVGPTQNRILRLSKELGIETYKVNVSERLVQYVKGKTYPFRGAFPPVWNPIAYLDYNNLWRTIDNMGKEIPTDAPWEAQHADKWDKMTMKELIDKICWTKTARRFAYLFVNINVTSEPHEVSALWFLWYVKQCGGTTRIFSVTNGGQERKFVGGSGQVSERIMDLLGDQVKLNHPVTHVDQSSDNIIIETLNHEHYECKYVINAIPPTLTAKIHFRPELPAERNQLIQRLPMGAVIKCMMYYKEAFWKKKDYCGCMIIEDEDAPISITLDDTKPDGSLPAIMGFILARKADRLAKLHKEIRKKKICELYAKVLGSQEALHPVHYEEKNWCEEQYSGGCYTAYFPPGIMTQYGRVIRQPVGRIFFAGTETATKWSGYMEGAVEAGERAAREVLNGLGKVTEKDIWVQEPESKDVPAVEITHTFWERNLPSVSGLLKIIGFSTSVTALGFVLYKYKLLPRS
Method: (§1) OXD-2314 binding to CNS receptors was calculated as a percentage of inhibition of a receptor-specific radioligand. Enzyme inhibition was calculated as the percent inhibition of baseline enzyme activity where inhibition above 50% was considered significant. […] Norepinephrine transports are expressed in low concentration throughout the brain and its relative concentration are not affected by aging or neurodegeneration. 5-lipoxygenase may be overexpressed in aging brain and play some role in neurodegeneration, which could be necessary to further investigate in vivo[42]. Off-target binding to monoamine oxidase A and B (MAO-A and MAO-B) has been seen with some tau PET radiotracers[43],[44].

MAO-B = target: T2, MAO-B (Homo sapiens, UniProt P27338); test: In vitro pharmacology screen (Eurofins): MAO-B; settings: read-out: inhibition of MAO-B binding
T2 construct: purchased Eurofins, France (contract screening)
T2 sequence (P27338 1-520): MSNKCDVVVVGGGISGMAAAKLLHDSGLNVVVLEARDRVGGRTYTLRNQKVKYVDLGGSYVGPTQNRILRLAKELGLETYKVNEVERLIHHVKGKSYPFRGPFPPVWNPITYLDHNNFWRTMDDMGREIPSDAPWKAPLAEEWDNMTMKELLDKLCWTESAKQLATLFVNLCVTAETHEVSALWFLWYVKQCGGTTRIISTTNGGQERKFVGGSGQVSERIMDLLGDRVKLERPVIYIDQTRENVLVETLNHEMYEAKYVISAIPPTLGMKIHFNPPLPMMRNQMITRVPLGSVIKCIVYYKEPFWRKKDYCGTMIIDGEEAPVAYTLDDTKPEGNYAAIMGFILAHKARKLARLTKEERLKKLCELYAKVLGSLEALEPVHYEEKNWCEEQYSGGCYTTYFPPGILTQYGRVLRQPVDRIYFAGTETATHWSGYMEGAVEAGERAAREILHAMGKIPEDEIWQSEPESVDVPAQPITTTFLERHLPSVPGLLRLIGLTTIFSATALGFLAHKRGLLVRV
Method: as §1

[1] = Dynamic brain PET-CT with [^18F]OXD-2314 in rats; format: in vivo
Method: Eight rats were used in preclinical PET scans with [^18F]OXD-2314: two for dynamic brain imaging, and six for whole-body biodistribution of radioactivity and dose estimation. Another five rats were used for radiometabolite analysis in brain homogenates and blood plasma. Dynamic PET-CT imaging in healthy wild-type (wt) rats were performed following intravenous administration of [^18F]OXD-2314 (17.9 and 23.8 MBq, n = 2, one female and one male). Radioactivity reached an initial peak of 2.3 standardized uptake value (SUV) within two minutes in whole brain, followed by a steady washout of radioactivity in the brain to below 0.3 SUV at the end of the 120 min acquisition time (Fig. 4). Distribution of radioactivity was homogenous among brain regions, but with the female rat having slower clearance of radioactivity from the brain and thus higher overall brain radioactivity than the male rat.
A total of 8 healthy adult rats (Sprague-Dawley, 384 ± 56 g; 4/4 M/F) underwent PET imaging following bolus injection of [^18F]OXD-2314 (20.5 ± 4.1 MBq), with two animals (M/F) scanned for 120 min with the head in the centre of PET field-of-view (FOV) whereas six animals (3/3 M/F) scanned for 180 min at three bed positions (head-to-bottom) with 15 frames (2×15 s, 2×30 s, 2×60 s, 1×120 s, 1×180 s, 2×240 s, 2×300 s, and 3×600 s) to cover the whole body. PET images were acquired using a nanoScan™ PET/CT scanner (Mediso, Budapest, Hungary) with rats anesthetized under isoflurane in O2 (1.5–2%, 1 L/min) throughout the imaging session and monitored closely for body temperature and respiration rate. […] Normalized cumulated activities of each organ were calculated using trapezoidal integration of the area under the TACs plus extrapolation of the TAC to infinity with natural decay of the radiotracer. […] SUV were calculated by normalizing regional radioactivity for injected radioactivity and body weight.

| SMILES | inhibition at 10 µM (MAO-A) [%] | inhibition at 10 µM (MAO-B) [%] | ratio initial maximum to late minimum brain radioactivity ([1]; rats) | whole brain radioactivity at end of acquisition ([1]; rats, end of the 120 min acquisition) | initial peak whole brain uptake (SUV) ([1]; wild-type rats, i.v., within two minutes, n = 2) |
| --- | --- | --- | --- | --- | --- |
| COC1CCCN(c2ccc(-c3cc4cc(O)ccc4[nH]3)c(F)n2)C1 (centres unmarked) [OXD-2314, 2-(2-fluoro-6-(3-methoxypiperidin-1-yl)pyridin-3-yl)-1H-indol-5-ol] | -1.7 | 37 |  |  |  |
| CO[C@H]1CCCN(c2ccc(-c3cc4cc(O)ccc4[nH]3)c([18F])n2)C1 [[^18F]OXD-2314] |  |  | ~ 8 | below 0.3 SUV | 2.3 SUV and > 2 SUV |
